The numbers were not newly measured in US20190290629A1, “NIRAPARIB SUSTAINED AND CONTROLLED RELEASE PHARMACEUTICAL COMPOSITION AND USE THEREOF” (priority 2016, published 2019), which cites them from elsewhere.

For data set [1], the system named is ovarian cancer. The conditions noted are these: orally once daily.
Experiment in data set [2]: not given
The source holds these as a separate data set.

The mark [3] stands for this setting: immediate release capsule, clinical studies.

Read-outs that look alike come from different tables or passages of the source.

Consider `NC(=O)c1cccc2cn(-c3ccc([C@@H]4CCCNC4)cc3)nc12` [niraparib, (S)-2-(4-(piperidin-3-yl)phenyl)-2H-indazole-7-carboxamide], for which, under “300 mg/time/day”, the “steady-state blood concentration peak value” is “about 4.4 μM”, the “steady-state blood concentration trough value” is about 2.0 µM and the “time at which steady-state blood concentration is reached” value was 12 to 14 days. In addition, where the note is “immediate release capsule of niraparib tosylate monohydrate, clinical studies”, the oral bioavailability was 73%. Under setting [3], the “blood concentration peak time” value is 3 h, the “effect of food on plasma exposure” value was “not affected by food” and the plasma half-life result was “more than 30 hours”. Besides, the “median progression free survival time” value in data set [1] (patients with ovarian cancer of BRCA gene mutation, after first chemotherapy) is given as 21 months. For the same molecule, the “median progression free survival time” value in data set [1] (patients without BRCA gene mutations) was 9.3 months. For the same molecule, in data set [2] (clinical), the dose-limiting toxicity result is “thrombocytopenia and anemia”. In data set [2] (clinical studies), the “patients who discontinued the treatment due to toxic and side effects” value was 15%; the “patients who reduced dose or stopped taking the drug due to toxic and side effects” value is 69%; the “patients with 3-4 grade anemia” value is 25%; the “patients with grade 3-4 platelet reduction” value is listed as 29%. In addition, the patients with neutropenia in data set [2] (clinical studies) is on record as 30%.
